Data set [1] concerns H460 cells. Nature of the data set: Chou-Talalay combination studies with RPAi 329. The settings on record: H460, combination with RPAi 329. It counts as cell-based, human. The procedure:
To assess synergy, the combination index (CI) was determined as described by Chou-Talalay as we have previously described ([8]). Briefly, H460 cells were treated with RPAi and the indicated agent alone and in combination. […] The data from both the single-agent treatments and the combination treatment were used to calculate the CI and plot this value as a function of the fraction of cells affected (Fa). A CI of >1 indicates antagonism between the two agents, while a CI <1 indicates synergy.
(A) Chou-Talalay analysis of combination with chemotherapeutics. […] (B) Chou-Talalay analysis of combination with DDR-targeted agents as described in panel (A).

Data set [2] has as its system H460 cells. Nature of the data set: DNA fiber analysis of replication fork dynamics. Type of data set: cell-based, human. The procedure: Analysis of DNA replication intermediates was performed as previously described with minor modifications ([11], [12]). H460 cells were seeded in 6-well plates at a density of 2 × 10^5 cells. […] After harvesting, the cells were resuspended in PBS at a concentration of 1,000,000 cells/ml, and 2 µl of the cell suspension was mixed with 8 µl of lysis buffer (200 mM Tris-HCl pH 7.5, 50 mM EDTA, 0.5% SDS) on a Superfrost Plus microscope slide (Fisher Scientific). After 6 min of incubation, the slides were tilted at a 45-degree angle to allow cell lysates to slowly run down the slide. After air-drying, the slides were fixed in methanol:acetic acid (3:1) and stored at 4°C. DNA fibers were denatured with 2.5N HCl for 1 h, washed with PBS, and blocked with 5% BSA in PBS-T (PBS + 0.1% Tween-20) for 1 h. […] Excess antibodies were removed by washing with PBS-T 3 times. After air-drying, the slides were mounted onto a coverslip with mounting medium. Fiber tracts were imaged with a Nikon epifluorescence microscope using a 40× oil immersion objective, and 100 fibers for each group were analyzed in ImageJ where the ratios of CldU : IdU were compared using pixel length. Data were analyzed by ANOVA with Bonferroni test for multiple comparisons.
(A) Schematic depiction of experimental design. DNA was pulse-labeled with IdU for 20 min. After IdU removal, replication forks were stalled by the addition of HU or left to replicate with vehicle treatment. HU was removed, and replication was labeled with CldU. Following CldU, cells were treated with the DDRi or vehicle. […] Data presented are combined from three individual experiments (100 fibers analyzed per experiment; 300 fibers total). Red bar indicates the median value of CldU/IdU.

Data set [3] has as its system H460 cells. The experiment in a line: Caspase 3/7 apoptosis assay. Type of data set: cell-based, human. The note with it: H460, 24 h. The procedure: Apoptosis induction was determined by activation of Caspases 3 and 7 using the CellEvent™ Caspase-3/7 Green Detection Reagent (Invitrogen). H460 cells were plated at 5 × 10^3 cells/well in black 96-well plates with clear bottoms (Costar) and incubated for 24 h prior to treatments. Cells were treated with the indicated concentration of RPAi or cisplatin for 24 h. The vehicle (DMSO) concentration was held constant at 1% for RPAi treatments. For caspase 3/7 detection, medium was removed and replaced with phosphate buffered saline (PBS) containing 5% fetal bovine serum (FBS) and 2 µM CellEvent™ Caspase-3/7 Green Detection Reagent. Cells were incubated at 37°C/5% CO2 for 1 h, and fluorescence intensity was measured in a BioTek Synergy H1 plate reader (excitation/emission 485/528). Images were captured with an Evos FL2 Auto microscope (Invitrogen) using a 10× objective.
Figure 3 The 329 induction of apoptotic cell death. (A) Analysis of caspase 3/7 activity in H460 cells following 24 h of treatment with 1% DMSO or the indicated concentrations of 329. Fluorescence images were captured as described in the Materials and Methods. (B) Quantification of caspase 3/7 activity. Fluorescence was measured in 96-well plates using a Biotek Synergy H1 plate reader following 24-h incubation with the indicated drugs and concentrations.

Data set [4] concerns lung cancer xenograft models. The note with it: cited from earlier work.
The conditions of data set [5]: cited from earlier work.
The target in data set [6] is T1, RPA–DNA interaction (purified full-length RPA) (Homo sapiens, UniProt P27694).
T1 construct: Purified full-length RPA (120 ng) was incubated with the indicated RPAi
T1 sequence (P27694 whole entry): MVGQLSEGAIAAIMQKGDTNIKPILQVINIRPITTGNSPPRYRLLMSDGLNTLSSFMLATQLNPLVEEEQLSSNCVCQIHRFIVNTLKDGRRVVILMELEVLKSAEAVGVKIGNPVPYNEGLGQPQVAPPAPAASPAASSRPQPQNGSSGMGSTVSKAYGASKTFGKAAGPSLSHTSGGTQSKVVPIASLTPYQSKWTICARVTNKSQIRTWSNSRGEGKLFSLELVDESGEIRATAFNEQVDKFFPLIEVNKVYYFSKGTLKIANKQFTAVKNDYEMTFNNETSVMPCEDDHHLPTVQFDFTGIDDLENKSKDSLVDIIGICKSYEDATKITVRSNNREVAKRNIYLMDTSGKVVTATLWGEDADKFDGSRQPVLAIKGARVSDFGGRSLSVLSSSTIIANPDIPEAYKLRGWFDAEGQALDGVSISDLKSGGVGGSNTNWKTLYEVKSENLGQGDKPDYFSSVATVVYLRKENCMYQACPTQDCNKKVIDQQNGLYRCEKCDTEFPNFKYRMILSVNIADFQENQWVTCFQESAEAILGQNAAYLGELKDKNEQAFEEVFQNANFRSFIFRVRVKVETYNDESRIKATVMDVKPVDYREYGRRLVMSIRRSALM
T1 sequence (P15927 whole entry partner): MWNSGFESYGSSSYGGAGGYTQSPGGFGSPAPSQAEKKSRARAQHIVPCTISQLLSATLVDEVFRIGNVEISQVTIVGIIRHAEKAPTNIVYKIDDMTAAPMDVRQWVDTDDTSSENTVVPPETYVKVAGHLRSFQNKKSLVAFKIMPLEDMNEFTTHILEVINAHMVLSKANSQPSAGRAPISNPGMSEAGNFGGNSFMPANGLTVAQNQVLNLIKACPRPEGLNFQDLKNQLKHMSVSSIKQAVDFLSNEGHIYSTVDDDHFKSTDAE
T1 sequence (P35244 whole entry partner): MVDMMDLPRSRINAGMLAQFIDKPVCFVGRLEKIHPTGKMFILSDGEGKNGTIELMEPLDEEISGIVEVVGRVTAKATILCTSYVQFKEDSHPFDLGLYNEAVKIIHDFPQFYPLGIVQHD
The experiment in a line: EMSA of RPA–DNA interaction inhibition. Type of data set: binding. The settings on record: 6.25, 12.5, 25, 50 µM RPAi. How it is done: (§1) EMSAs were performed as previously described ([9]). Briefly, reactions were conducted in 20 mM HEPES (pH 7.8), 1 mM DTT, 0.001% NP-40, and 50 mM NaCl. RPAis were suspended in 100% dimethlysulfoxide (DMSO), and DMSO concentration in the final reaction mixture was constant at less than 5%. Purified full-length RPA (120 ng) was incubated with the indicated RPAi or vehicle in reaction buffer for 30 min before the addition of the [^32]P-labeled 34-base ssDNA probe. Reactions were incubated for 5 min at room temperature, and products were separated via 6% native polyacrylamide gel electrophoresis. The bound and unbound fractions were quantified by phosphor-imager analysis using ImageQuant software (Molecular Dynamics, CA), and data were fit by non-linear regression using GraphPad Prism.
(§2) Figure 2 Replication protein A inhibitor (RPAi) inhibitory activity. (A) Chemical structure of RPAi’s 329 and 2004. (B) EMSA analysis of RPA–DNA interaction inhibition by 329 and 2004. Lanes 3–6 in each panel contain 6.25, 12.5, 25, and 50 µM of the indicated RPAi, respectively. The * indicates the position of the Escherichia coli SSB–single-stranded DNA (ssDNA) complex that serves as an internal specificity control. (C) Cell viability of H460 NSCLC cells in response to 329 and 2004.

In data set [7] the target is Escherichia coli single strand binding protein (SSB) (Escherichia coli, UniProt P0AGE0). Nature of the data set: EMSA internal specificity control, SSB–ssDNA complex. The note with it: internal specificity control in EMSA. The procedure:
as §1, §2
(In EMSA bound probe runs differently from free probe, usually more slowly.)

In data set [8] the test system is H460 NSCLC cells. Nature of the data set: CCK-8 viability assay. Type of data set: cell-based, human. The settings on record: H460, 48 h, compared to 551 predecessor. The procedure: Cell lines were obtained from ATCC and maintained as monolayer cultures in RPMI 1640 medium (H460) or Dulbecco’s Modified Eagle's Medium (DMEM) (A549) supplemented with 10% fetal bovine serum. H460 and A549 cells were plated at 2.5 × 10^3 cells/well and A2780 and GCT27 cells plated at 5 × 10^3 cells/well in a 96-well plate and incubated for 18–24 h prior to treatments. Cells were treated with the indicated concentration of RPAi for 48 h. The vehicle (DMSO) concentration was held constant at 1%. Cell metabolism/viability was assessed by a mitochondrial metabolism assay (CCK-8) as we have described previously ([10]). The generation of the water-soluble formazan product by cellular dehydrogenases is proportional to the number of living cells. Following incubation with CCK-8 reagent, absorbance was measured at 450 nm with a BioTek Synergy H1 plate reader. Values were compared to those of vehicle-treated controls to determine percent viability, and the results represent the average and SEM of triplicate determinations.
(In general: Tetrazolium assays rely on reduction of a dye to a coloured formazan, in cell work by metabolically active cells.)

Data set [9] has as its system A549 adenocarcinoma and H460 large cell carcinoma. Also on record: method as in doi:10.1101/2020.11.30.404640. The settings on record: both models, differing dosing regimens, DMSO/Tween; cited from earlier work.
On the set-up of data set [10]: method as in PMID 32550990. The note with it: cited from earlier work.

Escherichia coli single strand binding protein (SSB), sequence (P0AGE0 2-178): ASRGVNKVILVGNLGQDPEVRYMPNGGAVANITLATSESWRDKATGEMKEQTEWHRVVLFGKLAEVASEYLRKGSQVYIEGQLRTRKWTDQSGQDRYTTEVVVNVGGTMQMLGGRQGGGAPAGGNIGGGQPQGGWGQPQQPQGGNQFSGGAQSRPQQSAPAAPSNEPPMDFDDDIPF

Turning to `Cn1ncnc1[C@H]1c2n[nH]c(=O)c3cc(F)cc(c23)N[C@@H]1c1ccc(F)cc1` [BMN637], the “synergy with RPAi 329 (Chou-Talalay)” value in [1] is listed as “modest synergy”.
`CNCc1ccc(-c2cc(-c3nc(-c4ccc(S(=O)(=O)C(C)C)cc4)cnc3N)on2)cc1` [VE-822]: the “CldU/IdU signal after HU” value in data set [2] (H460, HU 2.5 mM then 329 50 µM or VE-822 2 µM) is recorded as “significant decrease in CldU/IdU signal”. In [2] (H460, without HU, 329 50 µM, VE-822 2 µM, 2 h), the “CldU/IdU, inhibitor alone” value is listed as “minimal effects”.
In the case of `O=C1NC(=O)c2c1c(-c1ccccc1Cl)cc1[nH]c3ccc(O)cc3c21` [Wee1 inhibitor], the “synergy with RPAi 329 (Chou-Talalay)” value in data set [1] was “antagonistic or additive”.
For the molecule `CCOc1ccc2cc(C3CC(c4ccc(I)cc4)=NN3C(=O)CCCC(=O)O)c(Cl)nc2c1` (centres unmarked) [compound 551], the “activation of caspases 3 and 7” value in [3] was “inability to detect caspase activity”. For the same molecule, the “tumor growth delay, combination with carboplatin” value in data set [4] (NSCLC xenograft models, reduced doses of carboplatin and 551, versus each agent alone) was “greater than additive effect on tumor growth delay”. Further, the in vivo activity entry in data set [4] is reported as “modest in vivo activity”. Moreover, the “caspase activation or annexin V/PI positivity” value in data set [5] was “not accompanied by caspase activation or annexin V/PI positivity”.
Take `CCOc1ccc2cc(C3CC(c4ccc(Br)cc4)=NN3C(=O)CCCC(=O)NCCCN3CCOCC3)c(Cl)nc2c1` (centres unmarked) [compound 2004]: the “RPA inhibitory activity (RPA–DNA interaction, EMSA)” value in data set [6] is on record as “potent RPA inhibitory activity”. Also, the “interaction of E. coli SSB with ssDNA” value in [7] was “not impacted”. Besides, the “single-agent cellular anticancer activity (CCK-8)” value in data set [8] is listed as “potent single-agent activity”. Further, the “single-agent anticancer activity in vivo” value in [9] is “only modest single-agent anticancer activity”. In [10], the “solubility, cellular uptake, and physicochemical properties” value is “excellent”.
As for `N=C1NC(=O)/C(=C/c2ccc(O)cc2)S1` [mirin], the “reversal of the CldU/IdU decrease” value in data set [2] (H460, HU then ATRi or RPAi) is on record as “reversible”.

Source of the values: publication PMC8895377, “In Vivo Targeting Replication Protein A for Cancer Therapy” (Frontiers in Oncology, 2022).
